In ChEMBL document CHEMBL4725449, “Brain Penetrable Inhibitors of Ceramide Galactosyltransferase for the Treatment of Lysosomal Storage Disorders” (ACS Med Chem Lett, 2020) one finds inhibition in vivo and ED50 data, which are given here for one compound.

For orientation: inhibition in vivo means the relative decrease from the control value, in per cent. One may read the ED50 as the midpoint of the dose-response relation.

Common to all, as to assay type: functional
The nature of test [1]: In vivo inhibition of GalCer de novo synthesis in adult C57BL/6 mouse kidney assessed as reduction in [13C] galactose incorporation into GalCer at 30 mg/kg, po via gavage treated with compound for 1 hr prior to intraperitoneal injection of [13C] galactose measured after 5 hrs of compound administration relative to control.
Test [2] is described as follows: In vivo inhibition of SFT de novo synthesis in adult C57BL/6 mouse kidney assessed as reduction in [13C] galactose incorporation into SFT at 30 mg/kg, po via gavage treated with compound for 1 hr prior to intraperitoneal injection of [13C] galactose measured after 5 hrs of compound administration relative to control.
A short description of test [3]: In vivo inhibition of GalCer de novo synthesis in PN14 to PN21 days C57BL/6 mouse brain assessed as reduction in [13C] galactose incorporation into GalCer at 30 mg/kg, po bid for 2 days and single dose at day 3 treated 1 hr prior to intraperitoneal injection of [13C] galactose measured after 5 hrs of last dose relative to control. The following applies: C57BL/6, 72 h, time 3 day.

Test [4] can be described thus: In vivo inhibition of GalCerde novo synthesis in po dosed PN14 to PN21 days C57BL/6 mouse brain assessed as reduction in [13C] galactose incorporation into GalCer administered twice for 2 days and single dose at day 3 treated 1 hr prior to intraperitoneal injection of [13C] galactose measured after 5 hrs of last dose. The following applies: C57BL/6, 72 h, time 3 day.

Structures are written as SMILES.

Consider `CNC(=O)c1csc2c(C(F)(F)F)cc(N3CCC(OC(=O)N[C@@H](C)COC(F)(F)F)CC3)nc12`, for which the inhibition in vivo at 30 mg/kg in test [1] amounted to 90%; in test [2], 99%; in test [3], 94%. Also, the ED50 in test [4] is less than 3 mg/kg.
